ChEMBL document CHEMBL4622931, “Potent dual EGFR/Her4 tyrosine kinase inhibitors containing novel (1,2-dithiolan-4-yl)acetamides” (Bioorg Med Chem Lett, 2020)
Active and inactive are the calls of the source. The calls are words filed in the database; no cut-off is given here.

Legend:
[1] = target: T1, Epidermal growth factor receptor (Homo sapiens, UniProt P00533); assay: Inhibition of wild type EGFR (unknown origin) in presence of radiolabelled gammaATP by radioisotope filter binding assay
[2] = target: T2, Receptor tyrosine-protein kinase erbB-2 (Homo sapiens, UniProt P04626); assay: Inhibition of HER2 (unknown origin) in presence of radiolabelled gammaATP by radioisotope filter binding assay
[3] = target: T3, Receptor tyrosine-protein kinase erbB-4 (Homo sapiens, UniProt Q15303); assay: Inhibition of HER4 (unknown origin) in presence of radiolabelled gammaATP by radioisotope filter binding assay
[4] = target: T4, Epidermal growth factor receptor (Homo sapiens, UniProt P00533, L858R); assay: Inhibition of EGFR L858R mutant (unknown origin) in presence of radiolabelled gammaATP by radioisotope filter binding assay
[5] = target: Epidermal growth factor receptor (Homo sapiens, UniProt P00533, L858R/T790M); assay: Inhibition of EGFR L858R/T790M mutant (unknown origin) in presence of radiolabelled gammaATP by radioisotope filter binding assay
[6] = target: Epidermal growth factor receptor (Homo sapiens, UniProt P00533, EX19DEL); assay: Inhibition of EGFR ex19del mutant (unknown origin) in presence of radiolabelled gammaATP by radioisotope filter binding assay
[7] = target: T1, Epidermal growth factor receptor; assay: Inhibition of recombinant human N-terminal GST-tagged EGFR (669 to 1210 residues) expressed in baculovirus expression system by competitive binding assay
[8] = target: T4, Epidermal growth factor receptor; assay: Inhibition of recombinant human N-terminal GST-tagged EGFR L858R mutant (669 to 1210 residues) expressed in baculovirus expression system by competitive binding assay
[9] = target: T4, Epidermal growth factor receptor; assay: Inhibition of recombinant human partial length EGFR L858R mutant (669 to 1011 residues) expressed in bacterial expression system by competitive binding assay
[10] = target: Receptor tyrosine-protein kinase erbB-3 (Homo sapiens, UniProt P21860); assay: Inhibition of recombinant human wild type partial length HER3 (684 to 987 residues) expressed in mammalian expression system by competitive binding assay
[11] = target: T3, Receptor tyrosine-protein kinase erbB-4; assay: Inhibition of recombinant human wild type partial length HER4 (690 to 994 residues) expressed in bacterial expression system by competitive binding assay
CCRF-CEM = assay: Cytotoxicity against human CCRF-CEM cells assessed as growth inhibition incubated for 48 hrs by SRB assay; format: functional
K562 = assay: Cytotoxicity against human K562 cells assessed as growth inhibition incubated for 48 hrs by SRB assay; format: functional; settings: K562, 48 h
MOLT-4 [12] = assay: Cytotoxicity against human MOLT4 cells assessed as growth inhibition incubated for 48 hrs by SRB assay; format: functional; settings: MOLT-4, 48 h
SR = assay: Cytotoxicity against human SR cells assessed as growth inhibition incubated for 48 hrs by SRB assay; format: functional
NCI-H460 [13] = assay: Cytotoxicity against human NCI-H460 cells assessed as growth inhibition incubated for 48 hrs by SRB assay; format: functional; settings: NCI-H460, 48 h
NCI-H226 = assay: Cytotoxicity against human NCI-H226 cells assessed as growth inhibition incubated for 48 hrs by SRB assay; format: functional; settings: NCI-H226, 48 h
MCF7 = assay: Cytotoxicity against human MCF7 cells assessed as growth inhibition incubated for 48 hrs by SRB assay; format: functional; settings: MCF7, 48 h
MDA-MB-231 = assay: Cytotoxicity against human MDA-MB-231 cells assessed as growth inhibition incubated for 48 hrs by SRB assay; format: functional; settings: MDA-MB-231, 48 h
MDA-MB-468 = assay: Cytotoxicity against human MDA-MB-468 cells assessed as growth inhibition incubated for 48 hrs by SRB assay; format: functional; settings: MDA-MB-468, 48 h
Hs-578T = assay: Cytotoxicity against human Hs578T cells assessed as growth inhibition incubated for 48 hrs by SRB assay; format: functional
PC-3 = assay: Cytotoxicity against human PC3 cells assessed as growth inhibition incubated for 48 hrs by SRB assay; format: functional; settings: PC-3, 48 h
DU-145 = assay: Cytotoxicity against human DU145 cells assessed as growth inhibition incubated for 48 hrs by SRB assay; format: functional; settings: DU-145, 48 h
HCT-116 = assay: Cytotoxicity against human HCT116 cells assessed as growth inhibition incubated for 48 hrs by SRB assay; format: functional; settings: HCT-116, 48 h
M14 = assay: Cytotoxicity against human M14 cells assessed as growth inhibition incubated for 48 hrs by SRB assay; format: functional; settings: M14, 48 h
SK-MEL-28 = assay: Cytotoxicity against human SK-MEL-28 cells assessed as growth inhibition incubated for 48 hrs by SRB assay; format: functional; settings: SK-MEL-28, 48 h
SF-268 = assay: Cytotoxicity against human SF268 cells assessed as growth inhibition incubated for 48 hrs by SRB assay; format: functional; settings: SF-268, 48 h
MOLT-4 [14] = assay: Antitumor activity against human MOLT4 cells loaded in hollow fibers implanted intraperitoneally in NMRI mouse assessed as reduction in cell viability at 10 mg/kg, ip administered for 14 days by celltiter glo assay; format: functional, organism-based
NCI-H460 [15] = assay: Antitumor activity against human NCI-H460 cells loaded in hollow fibers implanted intraperitoneally in NMRI mouse assessed as reduction in cell viability at 10 mg/kg, ip administered for 14 days by celltiter glo assay; format: functional, organism-based
[16] = Toxicity in NMRI mouse xenografted with human MOLT4 cells assessed as toxic signs at 10 mg/kg, ip administered for 14 days and observed on day 14; format: organism-based, MOLT-4; settings: in vivo, 336 h
[17] = Toxicity in NMRI mouse xenografted with human MOLT4 cells assessed as weight loss at 10 mg/kg, ip administered for 14 days and observed on day 14; format: organism-based, MOLT-4; settings: in vivo, 336 h
[18] = Toxicity in NMRI mouse xenografted with human NCI-H460 cells assessed as toxic signs at 10 mg/kg, ip administered for 14 days and observed on day 14; format: organism-based; settings: in vivo, 336 h
[19] = Toxicity in NMRI mouse xenografted with human NCI-H460 cells assessed as weight loss at 10 mg/kg, ip administered for 14 days and observed on day 14; format: organism-based; settings: in vivo, 336 h
[20] = Toxicity in NMRI mouse xenografted with human HCT116 cells assessed as toxic signs at 10 mg/kg, ip administered for 14 days and observed on day 14; format: organism-based, HCT-116; settings: in vivo, 336 h
[21] = Toxicity in NMRI mouse xenografted with human HCT116 cells assessed as weight loss at 10 mg/kg, ip administered for 14 days and observed on day 14; format: organism-based, HCT-116; settings: in vivo, 336 h
[22] = target: T2, Receptor tyrosine-protein kinase erbB-2
Description: Inhibition of recombinant human N-terminal His-tagged HER2 (676 to 1255 residues) expressed in baculovirus expression system by competitive binding assay

[23] = target: T3, Receptor tyrosine-protein kinase erbB-4
Description: Inhibition of recombinant human N-terminal GST-tagged HER4 (676 to 1308 residues) expressed in baculovirus expression system by competitive binding assay

T3 sequence (Q15303 whole entry): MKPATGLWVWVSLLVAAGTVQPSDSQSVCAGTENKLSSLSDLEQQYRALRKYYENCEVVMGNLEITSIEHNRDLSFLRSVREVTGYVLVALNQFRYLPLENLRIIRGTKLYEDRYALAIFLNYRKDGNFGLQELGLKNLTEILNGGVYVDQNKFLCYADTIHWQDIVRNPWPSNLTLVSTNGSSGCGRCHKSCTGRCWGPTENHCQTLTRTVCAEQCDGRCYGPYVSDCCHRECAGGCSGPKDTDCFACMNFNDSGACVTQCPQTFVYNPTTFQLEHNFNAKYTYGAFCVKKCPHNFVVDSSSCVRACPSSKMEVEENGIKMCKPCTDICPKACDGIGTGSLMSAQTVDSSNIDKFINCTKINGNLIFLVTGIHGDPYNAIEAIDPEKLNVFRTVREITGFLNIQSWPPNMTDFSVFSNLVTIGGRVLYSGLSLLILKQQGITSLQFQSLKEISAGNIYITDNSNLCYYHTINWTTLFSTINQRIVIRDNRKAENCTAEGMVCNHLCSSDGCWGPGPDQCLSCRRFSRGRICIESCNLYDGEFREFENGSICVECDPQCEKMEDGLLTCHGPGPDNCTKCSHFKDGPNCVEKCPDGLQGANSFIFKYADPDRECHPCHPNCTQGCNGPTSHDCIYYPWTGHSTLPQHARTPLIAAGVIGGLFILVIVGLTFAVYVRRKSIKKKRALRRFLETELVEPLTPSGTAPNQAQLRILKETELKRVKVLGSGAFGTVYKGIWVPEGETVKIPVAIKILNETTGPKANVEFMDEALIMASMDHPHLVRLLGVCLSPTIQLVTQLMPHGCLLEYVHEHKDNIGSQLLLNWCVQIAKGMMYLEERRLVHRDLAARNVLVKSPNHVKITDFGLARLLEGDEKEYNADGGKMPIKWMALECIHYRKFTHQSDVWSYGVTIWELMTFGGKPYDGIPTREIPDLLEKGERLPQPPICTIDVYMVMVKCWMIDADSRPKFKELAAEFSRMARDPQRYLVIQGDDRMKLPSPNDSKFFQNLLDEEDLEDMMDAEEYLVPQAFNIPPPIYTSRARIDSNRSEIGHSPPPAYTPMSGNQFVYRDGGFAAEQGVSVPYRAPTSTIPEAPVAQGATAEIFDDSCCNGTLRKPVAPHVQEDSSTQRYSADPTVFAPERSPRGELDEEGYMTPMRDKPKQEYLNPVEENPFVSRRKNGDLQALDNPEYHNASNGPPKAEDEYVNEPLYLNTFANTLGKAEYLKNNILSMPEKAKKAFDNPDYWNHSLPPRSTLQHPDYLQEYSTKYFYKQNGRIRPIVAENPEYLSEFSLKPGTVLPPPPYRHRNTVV
T4 sequence (P00533 25-1210 L858R limits assumed): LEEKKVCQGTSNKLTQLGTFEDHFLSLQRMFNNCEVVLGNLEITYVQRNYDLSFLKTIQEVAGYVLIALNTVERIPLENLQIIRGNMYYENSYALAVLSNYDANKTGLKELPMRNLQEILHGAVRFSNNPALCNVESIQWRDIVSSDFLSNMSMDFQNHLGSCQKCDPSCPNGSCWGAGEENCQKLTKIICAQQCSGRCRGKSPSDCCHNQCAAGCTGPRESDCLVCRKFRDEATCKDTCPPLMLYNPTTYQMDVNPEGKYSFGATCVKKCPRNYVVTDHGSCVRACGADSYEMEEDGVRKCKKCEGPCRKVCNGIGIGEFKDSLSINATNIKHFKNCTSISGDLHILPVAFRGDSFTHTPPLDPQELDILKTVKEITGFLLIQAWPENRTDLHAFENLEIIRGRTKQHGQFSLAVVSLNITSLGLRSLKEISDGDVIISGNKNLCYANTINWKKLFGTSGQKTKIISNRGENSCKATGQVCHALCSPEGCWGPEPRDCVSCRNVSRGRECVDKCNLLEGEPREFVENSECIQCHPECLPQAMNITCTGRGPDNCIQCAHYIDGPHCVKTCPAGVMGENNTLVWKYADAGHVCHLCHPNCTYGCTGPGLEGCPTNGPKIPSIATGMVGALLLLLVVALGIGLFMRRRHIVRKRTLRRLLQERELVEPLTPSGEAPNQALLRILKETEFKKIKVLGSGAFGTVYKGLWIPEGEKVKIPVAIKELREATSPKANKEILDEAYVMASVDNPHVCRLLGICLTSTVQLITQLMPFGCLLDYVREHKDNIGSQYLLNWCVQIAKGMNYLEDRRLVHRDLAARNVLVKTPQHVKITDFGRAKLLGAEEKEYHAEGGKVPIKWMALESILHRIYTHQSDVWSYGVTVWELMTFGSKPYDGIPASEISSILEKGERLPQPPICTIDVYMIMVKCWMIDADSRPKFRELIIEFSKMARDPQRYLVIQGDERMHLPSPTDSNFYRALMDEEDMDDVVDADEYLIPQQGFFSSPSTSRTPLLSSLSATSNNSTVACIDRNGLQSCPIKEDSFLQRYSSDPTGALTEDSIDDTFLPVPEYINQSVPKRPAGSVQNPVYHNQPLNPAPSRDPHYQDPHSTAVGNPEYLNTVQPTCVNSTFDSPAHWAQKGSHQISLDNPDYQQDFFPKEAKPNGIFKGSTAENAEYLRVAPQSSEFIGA
Epidermal growth factor receptor (Homo sapiens, UniProt P00533, EX19DEL), sequence (P00533 whole entry, looked up, stated change not applied, the tested form may be a part): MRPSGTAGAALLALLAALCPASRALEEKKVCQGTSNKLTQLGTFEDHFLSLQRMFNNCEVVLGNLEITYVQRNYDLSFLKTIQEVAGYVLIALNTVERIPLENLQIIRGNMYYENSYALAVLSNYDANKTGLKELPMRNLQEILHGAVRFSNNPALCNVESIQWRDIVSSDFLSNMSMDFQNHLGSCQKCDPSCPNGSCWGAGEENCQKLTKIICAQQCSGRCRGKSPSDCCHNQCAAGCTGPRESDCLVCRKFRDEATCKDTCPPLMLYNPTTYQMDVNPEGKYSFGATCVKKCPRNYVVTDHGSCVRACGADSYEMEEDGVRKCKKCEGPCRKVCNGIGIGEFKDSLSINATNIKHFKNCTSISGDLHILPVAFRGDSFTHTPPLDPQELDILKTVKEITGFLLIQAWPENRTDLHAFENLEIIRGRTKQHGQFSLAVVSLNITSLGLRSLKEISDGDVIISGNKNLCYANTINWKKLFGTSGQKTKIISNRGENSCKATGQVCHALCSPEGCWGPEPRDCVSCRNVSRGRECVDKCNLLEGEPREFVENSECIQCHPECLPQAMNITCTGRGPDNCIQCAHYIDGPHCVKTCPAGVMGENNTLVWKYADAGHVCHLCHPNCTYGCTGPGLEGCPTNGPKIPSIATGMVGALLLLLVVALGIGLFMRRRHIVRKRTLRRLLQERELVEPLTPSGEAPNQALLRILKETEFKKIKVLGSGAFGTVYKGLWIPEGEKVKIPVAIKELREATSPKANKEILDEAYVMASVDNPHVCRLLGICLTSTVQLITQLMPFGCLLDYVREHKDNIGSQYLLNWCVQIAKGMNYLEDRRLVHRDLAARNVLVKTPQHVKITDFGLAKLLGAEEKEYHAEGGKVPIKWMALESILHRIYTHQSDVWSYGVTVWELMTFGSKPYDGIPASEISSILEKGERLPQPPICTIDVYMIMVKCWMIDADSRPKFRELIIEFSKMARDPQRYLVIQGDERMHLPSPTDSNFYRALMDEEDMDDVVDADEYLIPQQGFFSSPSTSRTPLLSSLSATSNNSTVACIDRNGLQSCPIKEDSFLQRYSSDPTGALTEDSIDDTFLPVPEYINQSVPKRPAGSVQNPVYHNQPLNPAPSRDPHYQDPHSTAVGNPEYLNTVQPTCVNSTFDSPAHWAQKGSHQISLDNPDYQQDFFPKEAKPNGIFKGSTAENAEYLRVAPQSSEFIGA
T1 sequence (P00533 whole entry): as the sequence (P00533 whole entry, looked up, stated change not applied, the tested form may be a part) above

Structure (SMILES): N#Cc1cnc2cc(OC[C@@H](O)CO)c(NC(=O)CC3CSSC3)cc2c1Nc1ccc(OCc2cccc(F)c2)c(Cl)c1
- IC50 [1]: 2.4 nM
- IC50 [2]: 121 nM
- IC50 [3]: 0.03 nM
- IC50 [4]: 419 nM
- IC50 [5]: > 10000 nM
- IC50 [6]: 1990 nM
- IC50 [7]: 12.3 nM
- IC50 [8]: 18.1 nM
- Kd [9]: 9.2 nM
- Kd [10]: 380 nM
- Kd [11]: 6 nM
- GI50 (CCRF-CEM): 42 nM
- TGI (CCRF-CEM): 146 nM
- GI50 (K562): 94 nM
- TGI (K562): 208 nM
- GI50 (MOLT-4 [12]): 74 nM
- TGI (MOLT-4 [12]): 175 nM
- GI50 (SR): 66 nM
- TGI (SR): 246 nM
- GI50 (NCI-H460 [13]): 103 nM
- TGI (NCI-H460 [13]): 263 nM
- GI50 (NCI-H226): 198 nM
- TGI (NCI-H226): 883 nM
- GI50 (MCF7): 86 nM
- TGI (MCF7): 182 nM
- GI50 (MDA-MB-231): 103 nM
- TGI (MDA-MB-231): 237 nM
- GI50 (MDA-MB-468): 70 nM
- TGI (MDA-MB-468): 155 nM
- GI50 (Hs-578T): 105 nM
- TGI (Hs-578T): 282 nM
- GI50 (PC-3): 89 nM
- TGI (PC-3): 204 nM
- GI50 (DU-145): 134 nM
- TGI (DU-145): 424 nM
- GI50 (HCT-116): 88 nM
- TGI (HCT-116): 204 nM
- GI50 (M14): 83 nM
- TGI (M14): 251 nM
- GI50 (SK-MEL-28): 63 nM
- TGI (SK-MEL-28): 136 nM
- GI50 (SF-268): 83 nM
- TGI (SF-268): 778 nM
- inhibition (MOLT-4 [14]): Active
- inhibition (NCI-H460 [15]): Active
- Activity [16]: Non-Toxic
- Activity [17]: Non-Toxic
- Activity [18]: Non-Toxic
- Activity [19]: Non-Toxic
- Activity [20]: Non-Toxic
- Activity [21]: Non-Toxic
- IC50 [22]: 112 nM
- IC50 [23]: 12.2 nM

Structure (SMILES): N#Cc1cnc2cc(OC[C@H](O)CO)c(NC(=O)CC3CSSC3)cc2c1Nc1ccc(OCc2cccc(F)c2)c(Cl)c1
- IC50 [1]: 2 nM
- IC50 [2]: 104 nM
- IC50 [3]: 0.19 nM
- IC50 [4]: 387 nM
- IC50 [6]: 1280 nM
- GI50 (CCRF-CEM): 112 nM
- TGI (CCRF-CEM): 283 nM
- GI50 (K562): 148 nM
- TGI (K562): 454 nM
- GI50 (MOLT-4 [12]): 93 nM
- TGI (MOLT-4 [12]): 209 nM
- GI50 (SR): 132 nM
- TGI (SR): 608 nM
- GI50 (NCI-H460 [13]): 128 nM
- TGI (NCI-H460 [13]): 312 nM
- GI50 (NCI-H226): 690 nM
- TGI (NCI-H226): 1830 nM
- GI50 (MCF7): 91 nM
- TGI (MCF7): 193 nM
- GI50 (MDA-MB-231): 208 nM
- TGI (MDA-MB-231): 722 nM
- GI50 (MDA-MB-468): 120 nM
- TGI (MDA-MB-468): 385 nM
- GI50 (Hs-578T): 512 nM
- TGI (Hs-578T): 1740 nM
- GI50 (PC-3): 174 nM
- TGI (PC-3): 455 nM
- GI50 (DU-145): 637 nM
- TGI (DU-145): 1360 nM
- GI50 (HCT-116): 98 nM
- TGI (HCT-116): 209 nM
- GI50 (M14): 141 nM
- TGI (M14): 482 nM
- GI50 (SK-MEL-28): 129 nM
- TGI (SK-MEL-28): 350 nM
- GI50 (SF-268): 404 nM
- TGI (SF-268): 1320 nM

Structure (SMILES): N#Cc1cnc2ccc(NC(=O)C3CSSC3)cc2c1Nc1ccc(OCc2cccc(F)c2)c(Cl)c1
- IC50 [3]: 284 nM

Structure (SMILES): C=CC(=O)Nc1cc2c(Nc3ccc(F)c(Cl)c3)ccnc2cc1OCCC1CC12CCN(C)CC2 (configuration not stated)
- IC50 [3]: 1.2 nM

Structure (SMILES): N#Cc1cnc2cc(OC[C@@H](O)CO)c(NC(=O)C3CSSC3)cc2c1Nc1ccc(OCc2cccc(F)c2)c(Cl)c1
- IC50 [1]: 1.5 nM
- IC50 [3]: 0.45 nM
- IC50 [4]: 51 nM
- IC50 [5]: > 10000 nM
- IC50 [6]: 204 nM
